Earlier results, collected in patent US20160286794A1, “PLANT DISEASE CONTROL AGENT AND PLANT DISEASE CONTROL METHOD” (UBE MATERIALS INDUSTRIES, LTD., priority 2013, published 2016).

Details: Hydrophile-Lipophile Balance of the nonionic surfactant

| Substance | HLB |
| --- | --- |
| polyoxyethylene branched nonyl cyclohexyl ether [Triton N-101] | 13.5 |
| polyethylene glycol sorbitan monolaurate [Tween 20] | 16.7 |
| octylphenol polyethylene glycol ether [Triton X-100] | 13.5 |

The next lines start with the values.

| HLB | Substance |
| --- | --- |
| 13.0 | nonylphenyl polyethylene glycol [Nodinet P-40] |
| 15.0 | polyethylene glycol sorbitan monooleate [Tween 80] |
